Experimental data as given in US8940291B2 (priority 2009, dated 2015).
Entries after “also recorded” stand apart in the source; their conditions may differ. Like-named read-outs stand apart in the source and are kept apart here.

Assays:
VSVΔ51-induced genes = format: cell-based, mouse
B16 melanoma cells = assay: Cell cycle analysis in B16 melanoma cells (propidium iodine, flow cytometry); format: cell-based, mouse; conditions: over 48 hours
VSVΔ51 [1] = format: cell-based, Vesicular stomatitis virus
VSVΔ51 [2] = format: cell-based, Vesicular stomatitis virus; conditions: 40 h
VSVΔ51 [3] = format: cell-based, Vesicular stomatitis virus; remark: listed apart in the source
[4] = tested on: oncolytic vaccinia virus (VVdd); format: cell-based; conditions: 20 μM; 72 h
[5] = tested on: IFN mediated antiviral state in U251 cells; format: cell-based, human
CT26 cells = format: cell-based, mouse; conditions: 48 h
ISRE-luciferase reporter = format: cell-based, human
4T1 cells = format: cell-based, mouse; conditions: 48 h
VSVΔ51 [6] = format: cell-based, Vesicular stomatitis virus; remark: listed apart in the source
wild type VSV = format: cell-based, Vesicular stomatitis virus
VSVΔ51 [7] = format: cell-based, Vesicular stomatitis virus; conditions: 48 hours
VSVΔ51 [8] = format: cell-based, Vesicular stomatitis virus; remark: listed apart in the source
VSVΔ51 [9] = format: cell-based, Vesicular stomatitis virus; remark: listed apart in the source
[10] = tested on: IFN responsive U251 cells; format: cell-based, human
wild type VSV (wtVSV) = format: cell-based, Vesicular stomatitis virus
VSVΔ51 [11] = format: cell-based, Vesicular stomatitis virus; remark: listed apart in the source
[12] = 4 h pre-treatment, with and without VSVΔ51

In the case of CCCSc1ccc2nc(NC(=O)OC)[nH]c2c1 [Albendazole], the “VSV-induced cytotoxicity (VSV/CTRL kill ratio)” value (4T1 and CT26 cells; [12]) was “enhance VSV-induced cytotoxicity”.

With COC(=O)Nc1nc2ccc(C(=O)c3cccs3)cc2[nH]1 [Nocodazole] the “VSV-induced cytotoxicity (VSV/CTRL kill ratio)” value (4T1 and CT26 cells; [12]) was “enhance VSV-induced cytotoxicity”.

For O=C(CCCCCCC(=O)Nc1ccccc1)NO [SAHA, reference compound], the “share of VSVΔ51-induced cellular genes whose induction is reduced” value (VSVΔ51-induced genes) was 79%.

CC(/C=C/C(=O)NO)=C\[C@@H](C)C(=O)c1ccc(N(C)C)cc1 [TSA, reference compound] was tested, and the cell cycle distribution (B16 melanoma cells) was “blocks the cell cycle in G1”.

O=C1OC(c2ccccc2)C(Cl)=C1Cl (stereo not shown) [VSe1, 3,4-dichloro-5-phenyl-2,5-dihydrofuran-2-one] was tested, and the “replication of VSVΔ51 in normal tissues” value (VSVΔ51 [1]) was “did not increase the replication”, the “interferon protection from VSVΔ51 infection” value (VSVΔ51 [2]) was “partially overcome” and the “differential in replication between normal and cancerous tissues” value (VSVΔ51 [3]) was “roughly 1000 fold”. For the same compound, the “growth of VSVΔ51 in tumour tissue” value (VSVΔ51 [3]) was “over 100 fold”, the “VSVΔ51-GFP growth and spread (green fluorescence)” value (VSVΔ51 [3]; 40 μM) was “significantly enhanced” and the “share of VSVΔ51-induced cellular genes whose induction is reduced” value (VSVΔ51-induced genes) was “over 96%”. The “VVdd spread and viral output” value [4] was “able to enhance the spread and replication; also recorded: enhanced spread and viral output; also recorded: enhances spread”, the “sensitivity of IFN-protected cells to VSVΔ51” value [5] was “partially re-sensitized to VSVΔ51; also recorded: can overcome pre-existing IFN mediated antiviral state” and the “cell killing in combination with VSVΔ51 (combination index)” value (CT26 cells) was “synergistic cell killing”. The “interferon dependent transcription (luciferase)” value (ISRE-luciferase reporter) was “blunted”, the “cell killing in combination with VSVΔ51 (combination index)” value (4T1 cells) was “synergistic cell killing” and the cell cycle distribution (B16 melanoma cells; listed as DCPDF) was “cells ultimately accumulate in G1; also recorded: block in G1”. The “increase in viral titer” value (VSVΔ51 [6]) was 1000 fold and the “growth of VSV with a wild type M gene” value (wild type VSV) was “minimal ability to enhance the growth”.

With CCC1=C[C@@H]2CN(C1)Cc1c([nH]c3ccccc13)[C@@](C(=O)OC)(c1cc3c(cc1OC)N(C)[C@H]1[C@@](O)(C(=O)OC)[C@H](OC(C)=O)[C@]4(CC)C=CCN5CC[C@]31[C@@H]54)C2 [Vinorelbine base, Vinorelbine Base] the “VSV-induced cytotoxicity (VSV/CTRL kill ratio)” value (4T1 and CT26 cells; [12]) was “enhance VSV-induced cytotoxicity”.

With COc1cc2c(c(OC)c1OC)-c1ccc(OC)c(=O)cc1[C@@H](NC(C)=O)CC2 [colchicine] the “lowest dose with strong enhancement of VSVΔ51 (GFP) spread” value (VSVΔ51 [7]) was 80 nM, the “enhancement of VSVΔ51 spread” value (VSVΔ51 [8]) was “not observed in normal MRC-5 cells” and the “enhancement of virus production (maximum)” value (VSVΔ51 [9]) was ~1000 fold. For the same compound, the VSV oncolysis [10] was “enhanced VSV oncolysis”, the “ability to overcome IFN-induced antiviral effects” value [10] was “could not overcome IFN-induced antiviral effects” and the “number of GFP positive cells with wtVSV” value (wild type VSV (wtVSV)) was “appeared to decrease the number of GFP positive cells”. For the same compound, the “VSV-induced cytotoxicity (VSV/CTRL kill ratio)” value (4T1 and CT26 cells) was “enhance VSV-induced cytotoxicity” and the VSVΔ51 spread (VSVΔ51 [11]) was “enhanced spread of VSVΔ51”.

In the case of Parbendazole, the “VSV-induced cytotoxicity (VSV/CTRL kill ratio)” value (4T1 and CT26 cells; [12]) was “enhance VSV-induced cytotoxicity”.
